# Assay results reported in publication PMC8459971, “Evaluation of the hepatotoxicity of the novel GPR40 (FFAR1) agonist CPL207280 in the rat and monkey” (PLoS ONE, 2021).
# Values joined by “and” are separate entries in the source; they are usually repeats but may differ in a detail not shown here. Equal values may be shown once.
# Columns and labels:
# HepG2 cells = assay: Respiration in hepatocytes (Seahorse XF Mito stress test); format: cell-based, human
# OATP1A2 = OATP1A2 (Homo sapiens, UniProt P46721); assay: Uptake transporter inhibition assay, OATP1A2; conditions: for Accumulation (counts per minute; CPM) HEK293FT-MOCK / Accumulation (counts per minute; CPM) HEK293FT-OATP1A2: OATP1A2;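 also: cellular uptake of a radiolabeled probe substrate in HBSS pH 7.4 at 37 °C with test compound or solvent, measured by liquid scintillation counting of cell lysates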
# Experimental: (§2) For the uptake transporter inhibition assay, cells were washed twice with 100 μL of the appropriate buffer (HK, pH 7.4) for OATP1B1, followed by HBSS (pH 7.4) for (NTCP, OAT1, OAT2v1, OATP1A2, and OATP1B3). Uptake experiments were carried out at 37 ± 1°C in 50 μL of the respective buffer containing the probe substrate and the compound or solvent. […] After the experiment, cells were washed twice with 100 μL of cold appropriate buffer and lysed with 50 μL of 0.1 M NaOH. Radiolabeled probe substrate transport was determined by measuring an aliquot (35 μL) from each well for liquid scintillation counting.
# [1] = Viability assay, human primary hepatocytes, RT-glo, 48 h; format: cell-based; conditions: human, primary human hepatocytes, sheet Fig1 panel C (primary human hepatocytes), 48 h, replicates, read-out: viability, normalized to DMSO-treated controls
# Experimental: (§1) To study the viability of the liver cells, 5 × 10^3 HepG2 (ATCC®) or human primary cells (ThermoFisher Scientific, USA) were seeded in 100 μL of DMEM media (Gibco; Thermo Fisher Scientific, USA) supplemented with fetal bovine serum (FBS)- in a 96-well plate. […] The experiments were performed in triplicates.
# [2] = system: human primary hepatocytes; assay: as above; format: cell-based; conditions: for viability, normalized to DMSO-treated controls: sheet Fig1 panel C (primary human hepatocytes), replicates, in % (unit assumed)
# Experimental: as §1
# OAT1 = target: T1, OAT1 (Homo sapiens, UniProt Q4U2R8); assay: Uptake transporter inhibition assay, OAT1; conditions: for Accumulation (counts per minute; CPM) HEK293FT-MOCK / Accumulation (counts per minute; CPM) HEK293FT-OAT1: OAT1;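 also: HEK293FT cells expressing OAT1 or mock, uptake of radiolabeled probe substrate at 37 °C in HBSS pH 7.4 with test compound or solvent, cell lysate read by liquid scintillation counting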
# T1 sequence (Q4U2R8 1-563): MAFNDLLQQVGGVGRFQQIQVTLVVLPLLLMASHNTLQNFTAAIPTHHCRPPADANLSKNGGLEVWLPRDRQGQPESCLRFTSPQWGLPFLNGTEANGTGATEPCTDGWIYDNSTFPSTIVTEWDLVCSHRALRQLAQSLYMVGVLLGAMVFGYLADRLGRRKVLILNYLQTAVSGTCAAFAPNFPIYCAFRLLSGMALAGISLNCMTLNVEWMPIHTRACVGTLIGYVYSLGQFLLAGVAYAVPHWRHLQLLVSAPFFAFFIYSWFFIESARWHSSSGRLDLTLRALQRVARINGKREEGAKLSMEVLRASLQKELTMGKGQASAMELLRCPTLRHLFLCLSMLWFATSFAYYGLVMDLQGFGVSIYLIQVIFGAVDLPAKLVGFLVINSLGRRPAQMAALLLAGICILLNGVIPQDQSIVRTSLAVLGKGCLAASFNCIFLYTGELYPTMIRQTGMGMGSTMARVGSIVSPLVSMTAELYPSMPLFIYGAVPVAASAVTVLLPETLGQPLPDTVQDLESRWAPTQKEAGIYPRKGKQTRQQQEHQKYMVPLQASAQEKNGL
# Experimental: as §2
# [3] = Stability in microsomes, dog; format: in vitro ADME; conditions: for average DEG [%]: dog microsomes, with cofactors
# Experimental: The final incubation volume was 500 μL. Two control compounds (verapamil and donepezil) were included for each microsomal species, along with the appropriate vehicle control. The reactions were terminated by transferring 50 μL of incubate to 100 μL methanol containing an internal standard (metoprolol) at appropriate time points (0, 10, 20, 40, 60, and 120 min for the test compound and 0, 5, 10, 20, 40, and 60 min for the control compounds). The termination plates were centrifuged at 4000 x g at 4°C for 30 min to precipitate the protein. The supernatants were then collected for analysis, and LC-MS/MS was used for detection purposes. The system consisted of an Acquity™ Binary Solvent Manager, Acquity™ 4-position heated column manager, 2777 Ultra High Pressure Autosampler, and a Xevo-TQ MS triple quadrupole mass spectrometer (Waters Ltd., Herts, UK). This process was carried out twice.
# [4] = Dog (Beagle) microsomes, mean n = 2
# Chain of OATP1A2 (P46721 whole entry): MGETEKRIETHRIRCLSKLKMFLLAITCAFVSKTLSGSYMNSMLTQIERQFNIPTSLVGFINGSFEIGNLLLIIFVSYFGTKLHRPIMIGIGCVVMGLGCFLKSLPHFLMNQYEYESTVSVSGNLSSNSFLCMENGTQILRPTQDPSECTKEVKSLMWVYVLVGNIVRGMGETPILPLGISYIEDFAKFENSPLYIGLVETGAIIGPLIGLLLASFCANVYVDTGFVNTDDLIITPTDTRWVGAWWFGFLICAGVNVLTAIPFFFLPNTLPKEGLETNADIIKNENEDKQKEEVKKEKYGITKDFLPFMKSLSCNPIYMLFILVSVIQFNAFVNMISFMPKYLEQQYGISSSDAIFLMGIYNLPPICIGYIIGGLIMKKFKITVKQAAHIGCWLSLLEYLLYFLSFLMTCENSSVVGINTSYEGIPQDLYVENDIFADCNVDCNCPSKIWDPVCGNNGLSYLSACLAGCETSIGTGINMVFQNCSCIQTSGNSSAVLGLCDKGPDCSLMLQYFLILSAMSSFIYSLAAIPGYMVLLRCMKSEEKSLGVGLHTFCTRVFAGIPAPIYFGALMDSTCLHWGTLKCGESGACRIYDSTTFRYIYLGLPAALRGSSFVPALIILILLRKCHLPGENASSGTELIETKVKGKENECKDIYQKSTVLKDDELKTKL
structure (smiles),measurement,setting,value
CC#C[C@@H](CC(=O)O)c1ccc(OCC(C)=C(C)C)cc1 [CPL207280],EC50 of acidification of media (ECAR),"HepG2 cells; HepG2, Seahorse XF",absent
same,effect on ATP synthesis,"HepG2 cells; HepG2, Seahorse XF",did not alter ATP synthesis
same,effect on oxygen consumption rate / basal respiration,"HepG2 cells; HepG2, Seahorse XF",reduced basal and maximal respiration at the highest concentration of 100 μM
same,effect on respiration,"HepG2 cells; hepatocytes, Seahorse XF, 100 μM",slight respiration inhibition
same,IC50,OATP1A2,118 µM
same,"fold less inhibitory potency than TAK-875, OATP1A2",OATP1A2,at least 10 fold
same,Accumulation (counts per minute; CPM) HEK293FT-MOCK,OATP1A2; conc 0.10 µM,191 CPM and 198 CPM
same,Accumulation (counts per minute; CPM) HEK293FT-OATP1A2,OATP1A2; conc 0.10 µM,9941 CPM and 9363 CPM
same,Accumulation (counts per minute; CPM) HEK293FT-MOCK,OATP1A2; conc 1.00 µM,175 CPM and 167 CPM
same,Accumulation (counts per minute; CPM) HEK293FT-OATP1A2,OATP1A2; conc 1.00 µM,9582 CPM and 8309 CPM
same,Accumulation (counts per minute; CPM) HEK293FT-MOCK,OATP1A2; conc 3.00 µM,170 CPM and 189 CPM
same,Accumulation (counts per minute; CPM) HEK293FT-OATP1A2,OATP1A2; conc 3.00 µM,9105 CPM and 8526 CPM
same,Accumulation (counts per minute; CPM) HEK293FT-MOCK,OATP1A2; conc 10.00 µM,199 CPM and 184 CPM
same,Accumulation (counts per minute; CPM) HEK293FT-OATP1A2,OATP1A2; conc 10.00 µM,8813 CPM and 8062 CPM
same,Accumulation (counts per minute; CPM) HEK293FT-MOCK,OATP1A2; conc 30.00 µM,160 CPM and 178 CPM
same,Accumulation (counts per minute; CPM) HEK293FT-OATP1A2,OATP1A2; conc 30.00 µM,6805 CPM and 7468 CPM
same,Accumulation (counts per minute; CPM) HEK293FT-MOCK,OATP1A2; conc 100.00 µM,179 CPM and 165 CPM
same,Accumulation (counts per minute; CPM) HEK293FT-OATP1A2,OATP1A2; conc 100.00 µM,5379 CPM and 5182 CPM
same,Accumulation (counts per minute; CPM) HEK293FT-MOCK,OATP1A2; conc 300.00 µM,144 CPM and 136 CPM
same,Accumulation (counts per minute; CPM) HEK293FT-OATP1A2,OATP1A2; conc 300.00 µM,2696 CPM and 2783 CPM
same,"viability at 48 h, 0.78 µM",[1]; 0.78 uM,109%
same,"viability at 48 h, 3.125 µM",[1]; 3.125 uM,111%
same,"viability at 48 h, 6.25 µM",[1]; 6.25 uM,108%
same,"viability at 48 h, 25 µM",[1]; 25 uM,107%
same,"viability at 48 h, 50 µM",[1]; 50 uM,94.1%
same,"viability at 48 h, 100 µM",[1]; 100 uM,80.6%
same,viability,"[2]; human primary hepatocytes, 48 h, concentrations up to 10 μM",Neither compound exhibited altered viability
same,reduction of viability,"[2]; primary cells, 48 h, 100 μM",20%
same,"viability, normalized to DMSO-treated controls","[2]; 48 h, 0.78 uM",113.603 and 101.249
same,"viability, normalized to DMSO-treated controls","[2]; 48 h, 3.125 uM",114.319 and 102.513
same,"viability, normalized to DMSO-treated controls","[2]; 48 h, 6.25 uM",112.73 and 100.537
same,"viability, normalized to DMSO-treated controls","[2]; 48 h, 25 uM",106.605 and 99.5091
same,"viability, normalized to DMSO-treated controls","[2]; 48 h, 50 uM",95.5759 and 86.1766
same,"viability, normalized to DMSO-treated controls","[2]; 48 h, 100 uM",81.3191 and 75.1172
same,Toxicity for human hepatocytes,[2]; summary comparison CPL207280 vs TAK-875,<
same,IC50,OAT1,245 µM
same,"fold less inhibitory potency than TAK-875, OAT1",OAT1,at least 10 fold
same,Accumulation (counts per minute; CPM) HEK293FT-MOCK,OAT1; conc 0.10 µM,50 CPM and 53 CPM
same,Accumulation (counts per minute; CPM) HEK293FT-OAT1,OAT1; conc 0.10 µM,3966 CPM and 4397 CPM
same,Accumulation (counts per minute; CPM) HEK293FT-MOCK,OAT1; conc 1.00 µM,48 CPM and 53 CPM
same,Accumulation (counts per minute; CPM) HEK293FT-OAT1,OAT1; conc 1.00 µM,3796 CPM and 3875 CPM
same,Accumulation (counts per minute; CPM) HEK293FT-MOCK,OAT1; conc 3.00 µM,43 CPM
same,Accumulation (counts per minute; CPM) HEK293FT-OAT1,OAT1; conc 3.00 µM,3567 CPM and 3805 CPM
same,Accumulation (counts per minute; CPM) HEK293FT-OAT1,OAT1; conc 10.00 µM,3588 CPM and 3708 CPM
same,Accumulation (counts per minute; CPM) HEK293FT-MOCK,OAT1; conc 30.00 µM,36 CPM and 51 CPM
same,Accumulation (counts per minute; CPM) HEK293FT-OAT1,OAT1; conc 30.00 µM,3509 CPM and 3520 CPM
same,Accumulation (counts per minute; CPM) HEK293FT-MOCK,OAT1; conc 100.00 µM,35 CPM and 46 CPM
same,Accumulation (counts per minute; CPM) HEK293FT-OAT1,OAT1; conc 100.00 µM,2841 CPM and 2828 CPM
same,Accumulation (counts per minute; CPM) HEK293FT-MOCK,OAT1; conc 300.00 µM,36 CPM and 54 CPM
same,Accumulation (counts per minute; CPM) HEK293FT-OAT1,OAT1; conc 300.00 µM,1655 CPM and 1827 CPM
same,half-life at 3 μM,[3]; [4],1.35 h
same,microsomal CLint at 3 μM,[3]; [4],17.1 µL/min/mg
same,average DEG [%],[3]; 0 min,100.0%
same,average DEG [%],[3]; 20 min,86.5%
same,average DEG [%],[3]; 40 min,74.9%
same,average DEG [%],[3]; 60 min,59.3%
